Results on one molecule are retold here after EPA's ToxValDB 9.5 (doi:10.2903/j.efsa.2006.53r).

One may read the NOAEL as the highest dose or exposure tested at which no adverse effect was seen.

Structures are written as SMILES. Converted amounts (≈) assume the structure as drawn.

In one series the test system is Aphidius rhopalosiphi. The note with it: not reported; mortality.
The test system of a further series is Apis mellifera. The settings on record: acute, mortality.
The next series concerns Tagia sp. The note with it: acute; mortality.
The next series deals with Canidae. The note with it: Dog Other, organ weight.
For the next series, the system named is Colinus virginianus. The settings on record: for LD50: acute, oral, mortality.

With `COCC(C)N(C(=O)CCl)c1c(C)csc1C` (stereo unspecified) [Dimethenamid], the LD50 in the series on Rattus norvegicus (acute, oral, mortality) was 397 mg/kg; in the series with Apis mellifera (duration: 48 hours, dermal), 94 µg/piece; with Apis mellifera (oral, unspecified), 1000 µg/piece; with Colinus virginianus (diet) it was 1200 mg/kg; in the series with Colinus virginianus, 1910 mg/kg. Also, the NOAEL turned out to be 33.3 mg/kg-day in the series with Rattus norvegicus (reproduction developmental, growth); 25 mg/kg-day with Rattus norvegicus (short-term, duration: 4 days, oral, gavage, organ weight); 2 mg/kg-day with Canidae (chronic, duration: 1 years); 4.3 mg/kg-day in the series on Canidae (subchronic, duration: 90 days); 114 mg/kg-day in the series on Colinus virginianus (reproduction developmental). Further, the LEL in the series with Aphidius rhopalosiphi amounted to 1010 g/ha. The LC50 was determined as 294 mg/kg with Tagia sp.; 12 mg/L (≈ 43.5 µM) in the series with Daphnia magna (acute, duration: 48 hours, mortality); 2.6 mg/L (≈ 9.43 µM) in the series on Oncorhynchus mykiss (acute, duration: 96 hours, mortality). Also, the NOEC in the series on Daphnia magna (chronic/long-term, duration: 21 days) turned out to be 0.68 mg/L; in the series with Oncorhynchus mykiss (chronic/long-term, duration: 90 days, growth), 0.12 mg/L.
